Values quoted from earlier work in patent US20140212515A1, “COMPOSITION AND METHODS FOR OPTIMIZING HEALTH OF CANCER PATIENTS BY THE ADMINISTRATION OF SODIUM SELENITE AND VITAMIN K3” (priority 2013, published 2014).

Tested on: rat pancreatic cancer cells

Q: With `CC1=CC(=O)c2ccccc2C1=O` [Menadione, 2-Methyl-1,4-Napthoquinone] as the molecule, how does the “proliferation of rat pancreatic cancer cells” value read?
A: inhibit the proliferation
